Test results reported in patent US11865098B1, “Methods and compositions for treating excessive sleepiness” (Axsome Malta Ltd., priority 2017, dated 2024).

Legend:
[1] = tested on: adult patients with OSA and ES; assay: PGI-C, 12-week placebo-controlled parallel study in OSA; type: in vivo, human; details: 37.5, 75, 150, 300 mg; week 12; listed as APC
Experimental: The study was a 12-week, double-blind, placebo-controlled, parallel design study as described in greater detail in Example 1 (Schweitzer et al., Sleep 40(Abstract Supplement):A237. Abstract 0641 (2017)). Patients were randomized (1:1:2:2:2) to APC 37.5, 75, 150, 300 mg, or placebo for 12 weeks, and were stratified by adherence or non-adherence with primary OSA therapy (adherent definition was use for ≥4 hours per night on >70% of nights). Two patient-reported measures were included as secondary efficacy outcomes to evaluate the effects of APC on functional status and work productivity and activity impairment at baseline and weeks 1, 4, 8, and 12. The Functional Outcomes of Sleep questionnaire short version (FOSQ-10) (Chasens et al., Sleep 32(7):915 (2009)) evaluated the effects of ES on functioning. The Work Productivity and Activity Impairment questionnaire for Specific Health Problems (WPAI:SHP) (Reilly et al., Pharmacoeconomics 4(5):353 (1993); Reilly, Work Productivity and Activity Impairment Questionnaire: Specific Health Problem V2.0 (WPAI: SHP). www.reillyassociates.net/WPAI_SHP) evaluated work productivity impairment among employed patients and overall activity impairment outside of work among all patients for the past 7 days. […]

[2] = tested on: patients with narcolepsy type 1 or type 2; assay: PGI-C, 12-week phase 3 study in narcolepsy; type: in vivo, human
Experimental: The study was a 12-week, double-blind, randomized, placebo-controlled, parallel-group study. Patients were randomized (1:1:1:1) to receive placebo or APC 75, 150, or 300 mg; randomization was stratified by the presence or absence of cataplexy.
Co-primary endpoints were change from baseline to week 12 in MWT mean sleep latency and ESS score. The key secondary endpoint was the percentage of patients who reported improvement on the Patient Global Impression of Change (PGI-C) (Guy, ECDEU assessment manual for psychopharmacology, revised. US Department of Health, Education, and Welfare publication (ADM 76-338). Rockville, MD: National Institute of Mental Health; 1976) at week 12. Other secondary and exploratory endpoints included changes on function and quality-of-life and changes in the number of cataplexy attacks per week. Safety evaluation included adverse events, laboratory tests, and vital signs.
Efficacy analyses were based on the modified intent-to-treat population (mITT), defined as all patients who were randomized, received at least 1 dose of study drug, and had baseline and at least 1 post-baseline evaluation of both MWT and ESS. MWT and ESS were analyzed using a mixed-effect repeated measures (MMRM) model. PGI-C was analyzed using a chi-square test. […]

NC(=O)OC[C@H](N)Cc1ccccc1 [JZP-110, (R)-2-amino-3-phenylpropyl carbamate]
Key secondary endpoint, PGI-C [1]: met at all doses except for APC 37.5 mg
Percentage of patients who reported improvement in overall condition (PGI-C) relative to placebo ([2]; all doses (nominal P-value at 75 mg), week 12, mITT): significantly increased the percentage of patients who reported improvement
PGI-C improvement, effect at week 1 ([2]; all doses, as early as week 1): Statistically significant effects
